Target: T1, human factor Xa (Homo sapiens, UniProt P00742)
T1 construct: 25 μl human factor Xa (Enzyme Research Laboratories, Inc; South Bend, Ind.); purchased Enzyme Research Laboratories, Inc; South Bend, Ind
Assay: Factor Xa assay (chromogenic, purified enzyme)
Type: biochemical
Settings: inhibition constant for factor Xa; chromogenic substrate S-2765 140 μM, enzyme 0.5 nM, 25° C., pH 7.8; Ki=IC50/{1+(substrate concentration/Km)}; read-out: Ki(FXa)
Text: The ability of the compound of formulae I, Ib and Ic to inhibit factor Xa or factor VIIa or other enzymes like thrombin, plasmin, or trypsin can be assessed by determining the concentration of the compound of the formulae I, Ib and Ic that inhibits enzyme activity by 50%, i.e. the IC50 value, which was related to the inhibition constant Ki. Purified enzymes were used in chromogenic assays. The concentration of inhibitor that causes a 50% decrease in the rate of substrate hydrolysis was determined by linear regression after plotting the relative rates of hydrolysis (compared to the uninhibited control) versus the log of the concentration of the compound of formulae I, Ib and Ic. For calculating the inhibition constant Ki, the IC50 value was corrected for competition with substrate using the formula wherein Km is the Michaelis-Menten constant (Chen and Prusoff, Biochem.
Ki=IC50/{1+(substrate concentration/Km)}
Pharmacol. 22 (1973) 3099-3108; I. H. Segal, Enzyme Kinetics, 1975, John Wiley & Sons, New York, 100-125; which were incorporated herein by reference).
The IC50 was determined by combining in appropriate wells of a Costar half-area microtiter plate 25 μl human factor Xa (Enzyme Research Laboratories, Inc.; South Bend, Ind.) in TBS-PEG; 40 μl 10% (v/v) DMSO in TBS-PEG (uninhibited control) or various concentrations of the compound to be tested diluted in 10% (v/v) DMSO in TBS-PEG; and substrate S-2765 (N(α)-benzyloxycarbonyl-D-Arg-Gly-L-Arg-p-nitroanilide; Kabi Pharmacia, Inc.; Franklin, Ohio) in TBS-PEG.
The assay was performed by pre-incubating the compound of formulae I, Ib and Ic plus enzyme for 10 min. Then the assay was initiated by adding substrate to obtain a final volume of 100 μl. The initial velocity of chromogenic substrate hydrolysis was measured by the change in absorbance at 405 nm using a Bio-tek Instruments kinetic plate reader (Ceres UV900HDi) at 25° C. during the linear portion of the time course (usually 1.5 min after addition of substrate). The enzyme concentration was 0.5 nM and substrate concentration was 140 μM.
The inhibitory activity towards factor VIIa/tissue factor activity was determined using a chromogenic assay essentially as described previously (J. A. Ostrem et al., Biochemistry 37 (1998) 1053-1059 which was incorporated herein by reference). Kinetic assays were conducted at 25° C. in half-area microtiter plates (Costar Corp., Cambridge, Mass.) using a kinetic plate reader (Molecular Devices Spectramax 250). A typical assay consisted of 25 μl human factor VIIa and TF (5 nM and 10 nM, respective final concentration) combined with 40 μl of inhibitor dilutions in 10% DMSO/TBS-PEG buffer (50 mM Tris, 15 mM NaCl, 5 mM CaCl2, 0.05% PEG 8000, pH 8.15). Following a 15 minute preincubation period, the assay was initiated by the addition of 35 μl of the chromogenic substrate S-2288 (D-Ile-Pro-Arg-p-nitroanilide, Pharmacia Hepar Inc., 500 μM final concentration).

T1 sequence (P00742 235-488 limits assumed): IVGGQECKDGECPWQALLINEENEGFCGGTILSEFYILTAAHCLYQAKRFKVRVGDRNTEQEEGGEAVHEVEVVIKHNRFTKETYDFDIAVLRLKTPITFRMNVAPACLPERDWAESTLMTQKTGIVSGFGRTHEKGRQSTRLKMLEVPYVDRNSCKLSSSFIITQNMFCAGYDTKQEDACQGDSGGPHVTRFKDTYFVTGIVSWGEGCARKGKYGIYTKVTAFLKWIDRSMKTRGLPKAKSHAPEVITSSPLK
T1 sequence (P00742 41-179 partner limits assumed): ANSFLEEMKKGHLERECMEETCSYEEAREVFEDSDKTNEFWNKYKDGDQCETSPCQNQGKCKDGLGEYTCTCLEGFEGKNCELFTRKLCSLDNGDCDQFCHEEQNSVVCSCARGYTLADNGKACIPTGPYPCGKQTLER

Ki [µM] | SMILES
0.041 | CC(C)OC(=O)CNC(=O)c1cc(C(=O)NC2CCN(C(C)C)CC2)n(CC(=O)Nc2ccc(Cl)cn2)n1 [Example 92, {[1-[(5-Chloro-pyridin-2-ylcarbamoyl)-methyl]-5-(1-isopropyl-piperidin-4-ylcarbamoyl)-1H-pyrazole-3-carbonyl]-amino}-acetic acid isopropyl ester]
0.082 | CC(C)N1CCC(NC(=O)c2cc(C(=O)NCC(=O)O)nn2Cc2cc(-c3ccc(Cl)s3)on2)CC1 [Example 28, {[1-[5-(5-Chloro-thiophen-2-yl)-isoxazol-3-ylmethyl]-5-(1-isopropyl-piperidin-4-ylcarbamoyl)-1H-pyrazole-3-carbonyl]-amino}-acetic acid]
0.036 | CCOC(=O)CNC(=O)c1cc(C(=O)NC2CCN(C(C)C)CC2)n(CC(=O)Nc2ccc(Cl)cn2)n1 [Example 93, {[1-[(5-Chloro-pyridin-2-ylcarbamoyl)-methyl]-5-(1-isopropyl-piperidin-4-ylcarbamoyl)-1H-pyrazole-3-carbonyl]-amino}-acetic acid ethyl ester]
0.049 | CC(C)N1CCC(NC(=O)c2cc(C(=O)OCC(=O)O)nn2Cc2cc(-c3ccc(Cl)s3)on2)CC1 [Example 111, 1-[5-(5-Chloro-thiophen-2-yl)-isoxazol-3-ylmethyl]-5-(1-isopropyl-piperidin-4-ylcarbamoyl)-1H-pyrazole-3-carboxylic acid carboxymethyl ester]
0.293 | CC(C)N1CCC(NC(=O)c2c(-c3ccc(Cl)cc3Cl)cnn2Cc2cc(-c3ccc(Cl)s3)on2)CC1 [Example 7, 2-[5-(5-Chloro-thiophen-2-yl)-isoxazol-3-ylmethyl]-4-(2,4-dichloro-phenyl)-2H-pyrazole-3-carboxylic acid (1-isopropyl-piperidin-4-yl)-amide]
0.023 | CC(C)N1CCC(NC(=O)c2cc(C(=O)NCC(=O)O)nn2CC(=O)Nc2ccc(Cl)cn2)CC1 [Example 94, {[1-[(5-Chloro-pyridin-2-ylcarbamoyl)-methyl]-5-(1-isopropyl-piperidin-4-ylcarbamoyl)-1H-pyrazole-3-carbonyl]-amino}-acetic acid]
0.144 | CC(C)N1CCC(NC(=O)c2cc(C(=O)N3CCSC3)nn2Cc2cc(-c3ccc(Cl)s3)on2)CC1 [Example 78, 2-[5-(5-Chloro-thiophen-2-yl)-isoxazol-3-ylmethyl]-5-(thiazolidine-3-carbonyl)-2H-pyrazole-3-carboxylic acid (1-isopropyl-piperidin-4-yl)-amide]
0.063 | CC(C)N1CCC(NC(=O)c2cc(C(=O)NCCC(=O)O)nn2Cc2cc(-c3ccc(Cl)s3)on2)CC1 [Example 58, 3-{[1-[5-(5-Chloro-thiophen-2-yl)-isoxazol-3-ylmethyl]-5-(1-isopropyl-piperidin-4-ylcarbamoyl)-1H-pyrazole-3-carbonyl]-amino}-propionic acid]
0.013 | CC(C)N1CCC(NC(=O)c2cc(-c3cccs3)nn2Cc2cc3ccc(Cl)cc3s2)CC1 [Example 15, 2-(6-Chloro-benzo[b]thiophen-2-ylmethyl)-5-thiophen-2-yl-2H-pyrazole-3-carboxylic acid (1-isopropyl-piperidin-4-yl)-amide]
0.142 | CC(C)N1CCC(NC(=O)c2cc(C(=O)N3CCC(N4CCCC4=O)CC3)nn2Cc2cc(-c3ccc(Cl)s3)on2)CC1 [Example 81, 2-[5-(5-Chloro-thiophen-2-yl)-isoxazol-3-ylmethyl]-5-[4-(2-oxo-pyrrolidin-1-yl)-piperidine-1-carbonyl]-2H-pyrazole-3-carboxylic acid (1-isopropyl-piperidin-4-yl)-amide]
0.14 | CC(C)C(NC(=O)c1cc(C(=O)NC2CCN(C(C)C)CC2)n(Cc2cc(-c3ccc(Cl)s3)on2)n1)C(=O)O (stereo not drawn) [Example 98, 2-{[1-[5-(5-Chloro-thiophen-2-yl)-isoxazol-3-ylmethyl]-5-(1-isopropyl-piperidin-4-ylcarbamoyl)-1H-pyrazole-3-carbonyl]-amino}-3-methyl-butyric acid]
0.014 | CC(C)N1CCC(NC(=O)c2c(C#N)c(-c3cccs3)nn2Cc2cc(-c3ccc(Cl)s3)on2)CC1 [Example 12, 2-[5-(5-Chloro-thiophen-2-yl)-isoxazol-3-ylmethyl]-4-cyano-5-thiophen-2-yl-2H-pyrazole-3-carboxylic acid (1-isopropyl-piperidin-4-yl)-amide]
0.095 | CC(C)N1CCC(NC(=O)c2cc(C(=O)N3CCOCC3)nn2Cc2cc(-c3ccc(Cl)s3)on2)CC1 [Example 25, 2-[5-(5-Chloro-thiophen-2-yl)-isoxazol-3-ylmethyl]-5-(morpholine-4-carbonyl)-2H-pyrazole-3-carboxylic acid (1-isopropyl-piperidin-4-yl)-amide]
0.101 | CCOC(=O)CNC(=O)c1cc(C(=O)NC2CCN(C(C)C)CC2)n(Cc2cc(-c3ccc(Cl)s3)on2)n1 [Example 61, {[1-[5-(5-Chloro-thiophen-2-yl)-isoxazol-3-ylmethyl]-5-(1-isopropyl-piperidin-4-ylcarbamoyl)-1H-pyrazole-3-carbonyl]-amino}-acetic acid ethyl ester]
0.021 | CC(C)N1CCC(NC(=O)c2cc(OCC(F)(F)F)nn2CC(=O)Nc2ccc(Cl)cn2)CC1 [Example 105, 2-[(5-Chloro-pyridin-2-ylcarbamoyl)-methyl]-5-(2,2,2-trifluoro-ethoxy)-2H-pyrazole-3-carboxylic acid (1-isopropyl-piperidin-4-yl)-amide]

SMILES | Ki [µM]
CC(C)N1CCC(NC(=O)c2cc(C(=O)N3CCC[C@H]3C(=O)O)nn2Cc2cc(-c3ccc(Cl)s3)on2)CC1 [Example 65, 1-[1-[5-(5-Chloro-thiophen-2-yl)-isoxazol-3-ylmethyl]-5-(1-isopropyl-piperidin-4-ylcarbamoyl)-1H-pyrazole-3-carbonyl]-2S-pyrrolidine-2-carboxylic acid] | 0.142
CC(C)N1CCC(NC(=O)c2cc(C(=O)NCCS(N)(=O)=O)nn2Cc2cc(-c3ccc(Cl)s3)on2)CC1 [Example 44, 1-[5-(5-Chloro-thiophen-2-yl)-isoxazol-3-ylmethyl]-1H-pyrazole-3,5-dicarboxylic acid 5-[(1-isopropyl-piperidin-4-yl)-amide] 3-[(2-sulfamoyl-ethyl)-amide]] | 0.046
CC(C)N1CCC(NC(=O)c2cc(C(=O)NCCCN3CCCC3=O)nn2Cc2cc(-c3ccc(Cl)s3)on2)CC1 [Example 76, 1-[5-(5-Chloro-thiophen-2-yl)-isoxazol-3-ylmethyl]-1H-pyrazole-3,5-dicarboxylic acid 5-[(1-isopropyl-piperidin-4-yl)-amide] 3-{[3-(2-oxo-pyrrolidin-1-yl)-propyl]-amide}] | 0.083
CC(C)N1CCC(NC(=O)c2cc(C(=O)NC3CCS(=O)(=O)C3)nn2Cc2cc(-c3ccc(Cl)s3)on2)CC1 (stereo not drawn) [Example 75, 1-[5-(5-Chloro-thiophen-2-yl)-isoxazol-3-ylmethyl]-1H-pyrazole-3,5-dicarboxylic acid 3-[(1,1-dioxo-tetrahydro-1-thiophen-3-yl)-amide] 5-[(1-isopropyl-piperidin-4-yl)-amide]] | 0.076
CC(C)N1CCC(NC(=O)c2cc(C(=O)NC(CO)(CO)CO)nn2Cc2cc(-c3ccc(Cl)s3)on2)CC1 [Example 89, 1-[5-(5-Chloro-thiophen-2-yl)-isoxazol-3-ylmethyl]-1H-pyrazole-3,5-dicarboxylic acid 3-[(2-hydroxy-1,1-bis-hydroxymethyl-ethyl)-amide] 5-[(1-isopropyl-piperidin-4-yl)-amide]] | 0.192
CC(C)N1CCC(NC(=O)c2cc(C(=O)N(C)C3CCS(=O)(=O)C3)nn2Cc2cc(-c3ccc(Cl)s3)on2)CC1 (stereo not drawn) [Example 40, 1-[5-(5-Chloro-thiophen-2-yl)-isoxazol-3-ylmethyl]-1H-pyrazole-3,5-dicarboxylic acid 3-[(1,1-dioxo-tetrahydro-1-thiophen-3-yl)-methyl-amide] 5-[(1-isopropyl-piperidin-4-yl)-amide]] | 0.123

— US20080306056A1, “PYRAZOLE-DERIVATIVES AS FACTOR Xa INHIBITORS” (SANOFI-AVENTIS DEUTSCHLAND GMBH, priority 2002, published 2008)
